From patent US20220168310A1, “INHIBITION OF ADENOVIRUS WITH FILOCICLOVIR” (Microbiotix, Inc., priority 2019, published 2022) come the findings set out here.

Usually EC50 stands for the concentration that produces a half-maximal response. The CC50 is the concentration giving 50% cytotoxicity. Lower therefore signals harm at low concentration.

One series concerns Adenovirus 5 (AdV5). Briefly: Cytopathic effects (CPE) reduction assay, AdV5 in HFF cells, 384-well. It is filed as cell-based, human adenovirus. On the technique in general: Cytopathic effects are the visible damage that an infection or toxin causes in cultured cells.
The nature of series [1]: Cytotoxicity, CellTiter-Glo cell viability assay in HFF cells. To be noted: human, human foreskin fibroblast (HFF) cell monolayers. Here is the method:
Human foreskin tissue was obtained from the University of Alabama at Birmingham tissue procurement facility with approval from the Institutional Review Board. The tissue was stored at 4° C. in cell culture medium consisting of minimum essential media (MEM) with Earle's salts supplemented with 10% fetal bovine serum (FBS; HyClone, Inc., Logan, Utah) and standard concentration of L-glutamine, amphotericin B (Fungizone), and vancomycin. The tissue was then placed in a phosphate-buffered saline solution, minced, and rinsed to remove the red blood cells. Tissue fragments were then resuspended in a trypsin-EDTA solution and incubated at 37° C. to disperse the cells, which were then collected by centrifugation. Cell pellets were then resuspended in 4 ml culture medium, placed in a 25-cm^2 tissue culture flask, and incubated at 37° C. for 24 h. The culture medium was then replaced with fresh medium and condition of the cells was monitored daily until a confluent cell monolayer was formed. The HFF cells were then expanded through serial passages in standard growth medium of MEM with Earle's salts supplemented with 10% FBS, L-glutamine, penicillin, and gentamicin. Each lot of cells was confirmed to be free of mycoplasma infection and routinely passaged or used for assays at or before passage 10.
Antiviral and cytotoxicity data were obtained in a series of three to five separate experiments for each virus to provide an accurate estimate of antiviral activity and statistical data. Each assay included positive and negative control compounds as well as infected and uninfected controls to ensure the integrity of the experiment.
The CPE reduction assays were performed in monolayers of human foreskin fibroblast (HFF) cells (5000/well) in 384-well plates in assay media consisting of MEM with Earle's salts, 2% FBS and standard concentrations of L-glutamine, penicillin and gentamycin. 5000 cells were seeded in 384-well microtiter plates and incubated at 37° C. in a humidified 5% CO2 incubator for 24 hours to allow for formation of confluent monolayers.
Cell monolayers were infected at a multiplicity of infection (MOI) of approximately 0.005 PFU/cell with virus strains including AdV5. […] Cytopathology was determined by the addition of CellTiter-Glo® reagent (Promega, Madison, Wis.). Concentrations of antiviral test compounds sufficient to reduce CPE by 50% (EC50) were interpolated from the experimental data using standard methods in Microsoft® Excel.

Another series concerns adenovirus 6 (AdV6). Briefly: Neutral red survival assay, AdV6-infected A549 cells. It is filed as cell-based, human adenovirus. To be noted: FIG. 2, A549 cells, 6 days post-infection. The source says: The neutral red cell cytotoxicity assay was used to detect cell viability or drug cytotoxicity. The principle of this assay is based on the detection of viable cells via the uptake of the dye neutral red. Neutral red is a eurhodin dye that stains lysosomes in viable cells. Viable cells can take up neutral red via active transport and incorporate the dye into their lysosomes, but non-viable cells are unable not take up this chromophore. Consequently, after washing, viable cells can release the incorporated dye under acidified-extracted conditions. The amount of released dye can be quantified and used to determine the total number of viable cells or drug cytotoxicity. As such, cytotoxicity is expressed as a concentration-dependent reduction of the uptake of neutral red after exposure to the compound under investigation.
The neutral red survival assays were carried out in a 96-well format. Briefly, A549 adenocarcinomic human alveolar basal epithelial cells were plated at a concentration of 6×10^3 cells per well one day prior to infection. AdV6 infections were carried out at 5×10^3 PFU per well (an estimated 0.5 PFU/cell at the time of infection). […] Filociclovir plates were read and the results were graphed using GraphPad Prism graphing and statistical software (GraphPad Software, San Diego, Calif.).

For the compound `Nc1nc2c(ncn2/C=C2/CC2(CO)CO)c(=O)[nH]1` [FCV, 2-amino-9-{(Z)-[2,2-bis(hydroxymethyl)cyclopropylidene]methyl}-3,9-dihydro-6H-purin-6-one], the “concentration as low as which is effective to reduce AdV replication” value in the series on Adenovirus 5 (AdV5) (FIG. 1, AdV5) was 0.2 µM. Also, the EC50 in the series on Adenovirus 5 (AdV5) (Human mastadenovirus C, AdV5, HFF cells, 384 well CPE, average and SD from five independent experiments, read-out: EC50) turned out to be 2.2 ± 0.4 µM. In addition, the CC50 in series [1] (CC50, AdV6 line of Table 2, unit inferred) is more than 100 µM; in series [1] (CC50, AdV7 line of Table 2, unit inferred) it was more than 150 µM; in series [1] (CC50, AdV8 line of Table 2, unit inferred), more than 150 µM; in series [1] (CC50, HFF cells, run with AdV5 assay, average and SD from five independent experiments) it was 95 ± 10.6 µM; in series [1] (mammalian cytotoxicity (CC50), summary statement, 'preferably'), 100 to 150 µM. For the same compound, the “concentration as low as which is effective to improve viability of AdV6 infected cells” value with adenovirus 6 (AdV6) is recorded as 10^−1 μM.
